Reference: ChEMBL document CHEMBL2434905, “2-Amino-6-chloro-3,4-dihydroquinazoline: A novel 5-HT3 receptor antagonist with antidepressant character” (Bioorg Med Chem Lett, 2013)

Key:
[1] = molecular target: Delta-type opioid receptor (Homo sapiens, UniProt P41143); test: Displacement of [3H]DADLE from human recombinant delta opioid receptor expressed in HEK cells after 90 mins by scintillation counting analysis; format: cell-based, HEK293
[2] = molecular target: Alpha-1D adrenergic receptor (Homo sapiens, UniProt P25100); test: Displacement of [3H]Prazosin from human recombinant alpha1D-adrenoceptor after 90 mins by scintillation counting analysis
[3] = molecular target: 5-hydroxytryptamine receptor 1B (Homo sapiens, UniProt P28222); test: Displacement of [3H]5-CT from human recombinant 5-HT1B receptor expressed in HEK cells after 90 mins by scintillation counting analysis; format: cell-based, HEK293
[4] = molecular target: Muscarinic acetylcholine receptor M2 (Homo sapiens, UniProt P08172); test: Binding affinity to human recombinant muscarinic M2 receptor expressed in CHO cells after 90 mins by radioligand displacement assay; format: cell-based
[5] = molecular target: 5-hydroxytryptamine receptor 1A (Homo sapiens, UniProt P08908); test: Displacement of [3H]Way100635 from human recombinant 5-HT1A receptor expressed in CHO cells after 90 mins by scintillation counting analysis; format: cell-based
[6] = molecular target: Nicotinic acetylcholine receptor alpha2/beta4 (Homo sapiens, UniProt P02708+P30926); test: Displacement of [3H]-epibatidine from human alpha2beta4 nAChR transfected in HEK293 cells by scintillation counting analysis; format: cell-based
[7] = molecular target: 5-hydroxytryptamine receptor 2C (Homo sapiens, UniProt P28335); test: Displacement of [3H]Mesulergine from human recombinant 5-HT2C receptor expressed in HEK cells after 90 mins by scintillation counting analysis; format: cell-based, HEK293
[8] = molecular target: T1, 5-hydroxytryptamine receptor 3A (Mus musculus, UniProt P23979); test: Displacement of [3H]LY278584 from mouse 5-HT3A receptor
T1 sequence (P23979 whole entry): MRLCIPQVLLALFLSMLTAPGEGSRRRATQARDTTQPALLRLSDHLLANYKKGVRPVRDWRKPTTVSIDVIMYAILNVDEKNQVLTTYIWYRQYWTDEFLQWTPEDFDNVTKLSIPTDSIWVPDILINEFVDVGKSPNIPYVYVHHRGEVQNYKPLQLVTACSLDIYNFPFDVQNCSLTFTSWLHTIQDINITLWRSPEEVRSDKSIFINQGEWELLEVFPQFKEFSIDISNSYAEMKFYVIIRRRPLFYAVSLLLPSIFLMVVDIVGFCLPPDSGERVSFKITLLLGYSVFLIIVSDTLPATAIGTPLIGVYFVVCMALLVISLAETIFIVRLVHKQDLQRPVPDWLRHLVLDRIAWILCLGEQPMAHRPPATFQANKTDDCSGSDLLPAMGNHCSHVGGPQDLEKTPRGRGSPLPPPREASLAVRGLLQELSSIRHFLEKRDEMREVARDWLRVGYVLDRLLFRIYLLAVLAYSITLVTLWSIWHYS

[9] = Displacement of [3H]Flunitrazepam from BZP receptor in rat brain after 90 mins by scintillation counting analysis; format: tissue-based
[10] = molecular target: 5-hydroxytryptamine receptor 7 (Homo sapiens, UniProt P34969); test: Displacement of [3H]LSD from human recombinant 5-HT7 receptor expressed in HEK cells after 90 mins by scintillation counting analysis; format: cell-based, HEK293
[11] = molecular target: D(3) dopamine receptor (Homo sapiens, UniProt P35462); test: Displacement of [3H]N-methylspiperone from dopamine D3 receptor (unknown origin) after 90 mins by scintillation counting analysis
[12] = molecular target: D(1A) dopamine receptor (Homo sapiens, UniProt P21728); test: Displacement of [3H]SCH23390 from human recombinant dopamine D1 receptor expressed in HEK cells after 90 mins by scintillation counting analysis; format: cell-based, HEK293
[13] = molecular target: Muscarinic acetylcholine receptor M5 (Homo sapiens, UniProt P08912); test: Binding affinity to human recombinant muscarinic M5 receptor expressed in CHO cells after 90 mins by radioligand displacement assay; format: cell-based
[14] = molecular target: 5-hydroxytryptamine receptor 2B (Homo sapiens, UniProt P41595); test: Displacement of [3H]LSD from human recombinant 5-HT2B receptor expressed in HEK cells after 90 mins by scintillation counting analysis; format: cell-based, HEK293
[15] = tested on: Mus musculus; test: Toxicity in ICR mouse assessed as total movement distance at 1 to 3 mg/kg, ip after 15 to 45 mins by locomotor activity assay relative to vehicle-treated control; format: organism-based; parameters: route intraperitoneal; settings: in vivo
[16] = molecular target: Alpha-2B adrenergic receptor (Homo sapiens, UniProt P18089); test: Displacement of [3H]Rauwolscine from human recombinant alpha2B-adrenoceptor expressed in HEK cells after 90 mins by scintillation counting analysis; format: cell-based, HEK293
[17] = molecular target: Sigma non-opioid intracellular receptor 1 (Cavia porcellus, UniProt Q60492); test: Displacement of [3H]Pentazocine from guinea pig sigma1 receptor after 90 mins by scintillation counting analysis
[18] = molecular target: Neuronal acetylcholine receptor; alpha4/beta2 (Homo sapiens, UniProt P17787+P43681); test: Displacement of [3H]-epibatidine from human alpha4beta2 nAChR transfected in HEK293 cells by scintillation counting analysis; format: cell-based
[19] = molecular target: Nicotinic acetylcholine receptor alpha2/beta2 (Homo sapiens, UniProt P02708+P17787); test: Displacement of [3H]-epibatidine from human alpha2beta2 nAChR transfected in HEK293 cells by scintillation counting analysis; format: cell-based
[20] = molecular target: Beta-1 adrenergic receptor (Homo sapiens, UniProt P08588); test: Binding affinity to human recombinant beta1-adrenoceptor expressed in CHO cells after 90 mins by radioligand displacement assay; format: cell-based
[21] = molecular target: Sodium-dependent serotonin transporter (Homo sapiens, UniProt P31645); test: Displacement of [3H]cfitalopramfrom human recombinant serotonin transporter expressed in HEK cells after 90 mins by scintillation counting analysis; format: cell-based, HEK293
[22] = molecular target: Alpha-1B adrenergic receptor (Homo sapiens, UniProt P35368); test: Displacement of [3H]Prazosin from human recombinant alpha1B-adrenoceptor expressed in HEK cells after 90 mins by scintillation counting analysis; format: cell-based, HEK293
[23] = molecular target: Alpha-2C adrenergic receptor (Homo sapiens, UniProt P18825); test: Displacement of [3H]Rauwolscine from human recombinant alpha2C-adrenoceptor expressed in MDCK cells after 90 mins by scintillation counting analysis; format: cell-based
[24] = Displacement of [3H]Muscimol from GABAA in rat brain after 90 mins by scintillation counting analysis; format: tissue-based
[25] = molecular target: 5-hydroxytryptamine receptor 1E (Homo sapiens, UniProt P28566); test: Displacement of [3H]5-HT from human recombinant 5-HT1E receptor expressed in HEK cells after 90 mins by scintillation counting analysis; format: cell-based, HEK293
[26] = molecular target: Translocator protein (Rattus norvegicus, UniProt P16257); test: Displacement of [3H]PK11195 from PBR in rat brain after 90 mins by scintillation counting analysis; format: tissue-based
[27] = molecular target: D(4) dopamine receptor (Homo sapiens, UniProt P21917); test: Displacement of [3H]N-methylspiperone from dopamine D4 receptor (unknown origin) after 90 mins by scintillation counting analysis
Sequence of D(4) dopamine receptor (P21917 whole entry): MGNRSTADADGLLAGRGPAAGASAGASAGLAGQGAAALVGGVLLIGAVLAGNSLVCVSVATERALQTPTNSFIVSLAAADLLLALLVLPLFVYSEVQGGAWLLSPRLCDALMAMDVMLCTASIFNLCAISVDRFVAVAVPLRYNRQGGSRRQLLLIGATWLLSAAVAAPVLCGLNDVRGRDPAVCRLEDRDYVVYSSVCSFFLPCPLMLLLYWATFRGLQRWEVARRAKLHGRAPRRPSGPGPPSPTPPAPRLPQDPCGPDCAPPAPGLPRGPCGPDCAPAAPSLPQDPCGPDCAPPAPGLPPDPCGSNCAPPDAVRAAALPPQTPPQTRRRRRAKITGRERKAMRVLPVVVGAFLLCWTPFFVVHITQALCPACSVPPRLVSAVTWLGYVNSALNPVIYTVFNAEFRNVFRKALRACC

Sequence of Beta-1 adrenergic receptor (P08588 whole entry): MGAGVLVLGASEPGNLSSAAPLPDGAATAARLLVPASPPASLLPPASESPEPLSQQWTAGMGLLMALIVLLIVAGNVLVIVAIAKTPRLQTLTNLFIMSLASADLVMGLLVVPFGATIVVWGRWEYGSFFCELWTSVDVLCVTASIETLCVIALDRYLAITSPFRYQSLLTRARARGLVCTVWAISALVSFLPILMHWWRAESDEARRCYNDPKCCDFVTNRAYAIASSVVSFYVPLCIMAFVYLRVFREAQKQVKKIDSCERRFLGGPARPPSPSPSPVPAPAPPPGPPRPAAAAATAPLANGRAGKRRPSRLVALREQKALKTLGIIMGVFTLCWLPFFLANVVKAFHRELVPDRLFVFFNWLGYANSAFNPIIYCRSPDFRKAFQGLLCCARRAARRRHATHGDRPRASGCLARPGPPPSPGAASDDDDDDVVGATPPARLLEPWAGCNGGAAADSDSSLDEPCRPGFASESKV
Sequence of Translocator protein (P16257 whole entry, looked up): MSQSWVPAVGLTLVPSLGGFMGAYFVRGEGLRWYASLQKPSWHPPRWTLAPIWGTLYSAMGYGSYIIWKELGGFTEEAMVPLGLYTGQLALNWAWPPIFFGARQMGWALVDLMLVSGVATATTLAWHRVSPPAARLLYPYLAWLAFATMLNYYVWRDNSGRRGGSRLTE
Sequence of 5-hydroxytryptamine receptor 2C (P28335 whole entry): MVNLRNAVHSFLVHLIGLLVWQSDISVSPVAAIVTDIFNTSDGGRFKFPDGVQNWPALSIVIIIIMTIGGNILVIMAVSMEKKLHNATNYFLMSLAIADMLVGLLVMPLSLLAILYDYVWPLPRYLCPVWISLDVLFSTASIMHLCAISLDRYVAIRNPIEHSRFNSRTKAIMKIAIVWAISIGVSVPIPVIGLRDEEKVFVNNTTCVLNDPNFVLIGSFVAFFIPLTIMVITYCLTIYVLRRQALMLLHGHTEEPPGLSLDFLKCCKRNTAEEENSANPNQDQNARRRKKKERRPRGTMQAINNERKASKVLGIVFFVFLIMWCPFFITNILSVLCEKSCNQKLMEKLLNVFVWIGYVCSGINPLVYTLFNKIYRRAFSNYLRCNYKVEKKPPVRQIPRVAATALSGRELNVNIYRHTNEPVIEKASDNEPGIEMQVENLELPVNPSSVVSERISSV
Sequence of Sigma non-opioid intracellular receptor 1 (Q60492 whole entry): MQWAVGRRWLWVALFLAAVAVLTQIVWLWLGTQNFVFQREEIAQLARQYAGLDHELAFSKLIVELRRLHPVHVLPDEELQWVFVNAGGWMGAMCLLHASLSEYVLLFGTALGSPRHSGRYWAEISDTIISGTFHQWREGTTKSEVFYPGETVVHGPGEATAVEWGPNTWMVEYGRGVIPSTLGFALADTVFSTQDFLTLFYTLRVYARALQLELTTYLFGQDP
Sequence of Muscarinic acetylcholine receptor M2 (P08172 whole entry): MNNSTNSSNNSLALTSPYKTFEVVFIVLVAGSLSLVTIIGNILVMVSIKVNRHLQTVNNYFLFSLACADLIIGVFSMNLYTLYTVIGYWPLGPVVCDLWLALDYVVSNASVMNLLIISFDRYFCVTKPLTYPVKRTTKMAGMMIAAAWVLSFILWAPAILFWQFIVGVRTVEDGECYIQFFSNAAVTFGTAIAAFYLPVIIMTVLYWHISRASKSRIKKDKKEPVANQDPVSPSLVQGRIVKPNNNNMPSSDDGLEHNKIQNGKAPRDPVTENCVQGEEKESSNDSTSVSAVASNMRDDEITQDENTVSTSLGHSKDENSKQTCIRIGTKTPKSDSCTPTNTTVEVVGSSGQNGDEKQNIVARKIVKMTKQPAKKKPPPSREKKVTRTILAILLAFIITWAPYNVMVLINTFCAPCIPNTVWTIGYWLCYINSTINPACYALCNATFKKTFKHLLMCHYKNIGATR
Sequence of 5-hydroxytryptamine receptor 1A (P08908 whole entry): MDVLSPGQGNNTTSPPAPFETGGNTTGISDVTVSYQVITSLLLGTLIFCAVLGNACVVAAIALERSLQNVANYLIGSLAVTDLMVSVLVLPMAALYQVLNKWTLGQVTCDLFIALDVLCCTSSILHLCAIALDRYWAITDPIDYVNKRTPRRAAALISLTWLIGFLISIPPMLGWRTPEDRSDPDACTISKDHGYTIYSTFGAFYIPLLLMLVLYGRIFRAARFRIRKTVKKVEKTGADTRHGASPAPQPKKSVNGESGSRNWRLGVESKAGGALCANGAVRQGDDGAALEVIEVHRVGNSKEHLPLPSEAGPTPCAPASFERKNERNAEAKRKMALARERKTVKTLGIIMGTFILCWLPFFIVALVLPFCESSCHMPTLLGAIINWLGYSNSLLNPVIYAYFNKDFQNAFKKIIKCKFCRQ
Sequence of Alpha-2B adrenergic receptor (P18089 whole entry): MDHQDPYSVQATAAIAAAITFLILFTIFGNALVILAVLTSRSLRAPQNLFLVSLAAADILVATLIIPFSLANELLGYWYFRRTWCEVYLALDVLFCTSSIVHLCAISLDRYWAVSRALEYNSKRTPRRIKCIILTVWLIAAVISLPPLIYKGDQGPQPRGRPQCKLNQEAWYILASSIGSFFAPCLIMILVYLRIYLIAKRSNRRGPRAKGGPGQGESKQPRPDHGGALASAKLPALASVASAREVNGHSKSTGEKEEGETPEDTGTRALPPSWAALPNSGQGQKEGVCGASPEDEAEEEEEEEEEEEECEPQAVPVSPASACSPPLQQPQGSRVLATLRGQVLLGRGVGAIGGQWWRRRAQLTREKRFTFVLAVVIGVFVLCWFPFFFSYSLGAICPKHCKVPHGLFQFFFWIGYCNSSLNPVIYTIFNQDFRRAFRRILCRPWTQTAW
Sequence of 5-hydroxytryptamine receptor 1E (P28566 whole entry): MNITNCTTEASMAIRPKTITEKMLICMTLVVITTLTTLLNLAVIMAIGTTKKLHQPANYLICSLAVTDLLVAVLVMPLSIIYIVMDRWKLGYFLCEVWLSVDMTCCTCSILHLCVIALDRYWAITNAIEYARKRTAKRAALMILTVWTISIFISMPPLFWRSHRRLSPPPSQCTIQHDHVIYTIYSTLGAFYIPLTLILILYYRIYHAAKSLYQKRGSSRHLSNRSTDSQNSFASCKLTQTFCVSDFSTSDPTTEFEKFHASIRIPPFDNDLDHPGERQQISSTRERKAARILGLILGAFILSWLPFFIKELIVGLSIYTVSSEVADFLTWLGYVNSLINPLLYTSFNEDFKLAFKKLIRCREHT
Sequence of Neuronal acetylcholine receptor; alpha4/beta2 (P17787 whole entry): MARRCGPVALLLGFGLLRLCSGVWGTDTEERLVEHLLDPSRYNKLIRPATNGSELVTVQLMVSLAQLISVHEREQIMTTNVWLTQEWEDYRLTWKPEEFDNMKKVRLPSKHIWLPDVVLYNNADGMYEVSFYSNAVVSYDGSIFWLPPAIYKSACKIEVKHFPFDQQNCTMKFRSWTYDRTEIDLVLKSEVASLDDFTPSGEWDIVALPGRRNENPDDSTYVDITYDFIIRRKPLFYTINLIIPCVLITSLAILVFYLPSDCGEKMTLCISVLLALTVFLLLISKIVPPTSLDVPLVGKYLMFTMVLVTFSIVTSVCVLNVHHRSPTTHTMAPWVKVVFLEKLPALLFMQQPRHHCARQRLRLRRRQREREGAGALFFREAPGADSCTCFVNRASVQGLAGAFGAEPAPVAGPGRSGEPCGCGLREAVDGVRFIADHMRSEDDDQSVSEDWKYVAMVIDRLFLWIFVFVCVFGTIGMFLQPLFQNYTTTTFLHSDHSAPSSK
Sequence of Neuronal acetylcholine receptor; alpha4/beta2 (P43681 whole entry): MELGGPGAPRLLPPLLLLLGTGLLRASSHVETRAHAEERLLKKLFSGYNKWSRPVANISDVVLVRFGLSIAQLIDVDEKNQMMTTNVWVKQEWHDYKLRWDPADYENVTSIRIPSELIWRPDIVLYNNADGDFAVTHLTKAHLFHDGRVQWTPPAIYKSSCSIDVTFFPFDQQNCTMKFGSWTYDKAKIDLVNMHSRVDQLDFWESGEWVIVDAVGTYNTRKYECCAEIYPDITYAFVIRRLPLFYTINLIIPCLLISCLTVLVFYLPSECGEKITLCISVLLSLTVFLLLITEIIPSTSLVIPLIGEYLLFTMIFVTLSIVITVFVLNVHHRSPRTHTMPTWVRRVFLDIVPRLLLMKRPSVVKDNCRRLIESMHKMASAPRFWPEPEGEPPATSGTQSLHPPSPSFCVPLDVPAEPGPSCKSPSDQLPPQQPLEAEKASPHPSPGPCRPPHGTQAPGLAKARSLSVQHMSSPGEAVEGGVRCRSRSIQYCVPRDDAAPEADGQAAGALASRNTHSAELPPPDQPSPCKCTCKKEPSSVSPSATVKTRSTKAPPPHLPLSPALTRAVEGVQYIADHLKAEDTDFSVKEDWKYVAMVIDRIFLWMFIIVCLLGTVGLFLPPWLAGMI

SMILES: Cl.NC1=Nc2ccc(Cl)cc2CN1
- Ki [1]: > 10 µM
- Ki [2]: > 10 µM
- Ki [3]: > 10 µM
- Ki [4]: > 10 µM
- Ki [5]: > 10 µM
- Ki [6]: > 10 µM
- Ki [7]: 0.644 µM
- Ki [8]: 0.08 µM
- Ki [9]: > 10 µM
- Ki [10]: 1.16 µM
- Ki [11]: > 10 µM
- Ki [12]: > 10 µM
- Ki [13]: > 10 µM
- Ki [14]: 0.565 µM
- Activity [15]: Non-toxic
- Ki [16]: 0.243 µM
- Ki [17]: 6.15 µM
- Ki [18]: > 10 µM
- Ki [19]: > 10 µM
- Ki [20]: > 10 µM
- Ki [21]: > 10 µM
- Ki [22]: > 10 µM
- Ki [23]: 0.84 µM
- Ki [24]: > 10 µM
- Ki [25]: > 10 µM
- Ki [26]: > 10 µM
- Ki ([27]; read-out: Ki): 5.8 µM
- Ki ([27]; read-out: pKi (converted)): 5.13 µM
